Measured values taken from patent publication US11225465B2, “Albicidin derivatives, their use and synthesis” (TECHNISCHE UNIVERSITÄT BERLIN, priority 2017, dated 2022).
Values after ≈ are worked out from the molar mass of the structure shown. Like-named read-outs stand apart in the source and are kept apart here.

Experiments:
Assay in all cases: Microdilution assay, MIC
Assay type in all cases: cell-based
[1] = test system: Micrococcus luteus DSM1790; settings: read-out: MIC M. luteus DSM1790
Description: (§1) The tests were performed using the micro dilution method.
(§2) The determination of MIC values was performed according to the ninth edition of the Approved Standard M07-A9 (CLSI. Methods for Dilution Antimicrobial Susceptibility Tests for Bacteria That Grow Aerobically; Approved Standard—Ninth Edition. CLSI document M07-A9. Wayne, Pa.: Clinical and Laboratory Standards Institute; 2012.)
(§3) The test was carried out for four different bacterial strains (E. coli DSM 1116 [gram negative], B. subtilis DSM 10 [gram positive], M. luteus DSM 1790 [gram positive], S. typhimurium TA100 [gram negative]). 20 μL of cryo stock of each strain were inoculated in 20 mL of LB media (Lysogeny broth: 10 g/L peptone, 5 g/L yeast extract, 5 g/L NaCl) followed by incubation over night at 37° C., 200 rpm. The test inoculum was adjusted by the 0.5 McFarland Standard (OD625 from 0.08 to 0.1). Within 15 min of preparation, the adjusted inoculum suspension was diluted in MHBII media (BBL T M Mueller-Hinton Broth II, Becton, Dickinson and Company, N.J./USA) so that each well contained approximately 5×10^5 CFU/mL in a final volume of 100 μL. 95 μL of the inoculum were applied per well and 5 μL of the (diluted) antibiotic substance were added.
(§4) Previously the dry antibiotic compounds were dissolved in DMSO (100%) with a concentration of 2560 μg/mL and the resulting stock solutions were further diluted in DMSO (100%). 5 μL of each antibiotic dilution were applied to the microdilution tray to reach final concentrations of 64 μg/mL to 0.008 μg/mL. One row of each well plate was left as a growth control without antibiotic substances and another row of the microdilution tray was used as sterility control (only MHB II-media). The antimicrobial effect of the solvent (DMSO) was tested by adding 5 μL DMSO to several wells without antibiotics.
(§5) Purity check and cell titer control were performed according to International Standard M07-A9 on Mueller-Hinton II Agar (Mueller Hinton II Broth, 15 g/L agar-agar).
(§6) Both microdilution trays and agar plates were incubated at 37° C. for 20 h and subsequently analyzed visually.

S. typhimurium TA100 = settings: Salmonella enterica, 20 h, read-out: MIC S. typhimurium TA100
Description: as §1, §2, §3, §4, §5, §6

E. coli DSM 1116 = settings: Escherichia coli, read-out: MIC E. coli DSM1116
Description: as §1, §2, §3, §4, §5, §6

Bacillus subtilis DSM10 = settings: read-out: MIC B. subtilis DSM10
Description: as §1, §2, §3, §4, §5, §6

Structure (SMILES)	MIC ([1]; DSM1790, 20 h)	MIC (S. typhimurium TA100)	MIC (E. coli DSM 1116; DSM1116, 20 h)	MIC (Bacillus subtilis DSM10; DSM10, 20 h)	MIC ([1]; DSM1790, gram positive, MHBII media, 37° C., 20 h)	MIC (S. typhimurium TA100; gram negative, MHBII media, 37° C.)	MIC (E. coli DSM 1116; DSM1116, gram negative, MHBII media, 37° C., 20 h)	MIC (Bacillus subtilis DSM10; DSM10, gram positive, MHBII media, 37° C., 20 h)
COc1c(NC(=O)c2ccc(NC(=O)c3ccc(NC(=O)[C@H](Cc4c[nH]nn4)NC(=O)c4ccc(NC(=O)/C(C)=C/c5ccc(F)cc5)cc4)cc3)c(OC)c2O)ccc(C(=O)O)c1O [Compound 18]	250 µg/mL (≈ 282 µM)	≤ 16 µg/mL	31 µg/mL (≈ 35 µM)	125 µg/mL (≈ 141 µM)	–	–	–	–
COc1c(NC(=O)c2ccc(NC(=O)c3ccc(NC(=O)C(CN4CCOCC4)NC(=O)c4ccc(NC(=O)/C(C)=C/c5ccc(O)cc5)cc4)cc3)c(OC)c2O)ccc(C(=O)O)c1O [Compound 4, L-Morpholino-Albicidin]	8000 µg/mL (≈ 8860 µM)	63 µg/mL (≈ 69.8 µM)	500 µg/mL (≈ 554 µM)	250 µg/mL (≈ 277 µM)	–	–	–	–
COc1c(NC(=O)c2ccc(NC(=O)c3ccc(NC(=O)[C@H](CC#N)NC(=O)c4ccc(NC(=O)/C(C)=C/c5ccc(O)cc5)cc4)c(O)c3)c(OC)c2O)ccc(C(=O)O)c1O [Compound 13]	–	500 µg/mL (≈ 582 µM)	2000 µg/mL (≈ 2330 µM)	2000 µg/mL (≈ 2330 µM)	–	–	–	–
C/C(=C\c1ccc(O)cc1)C(=O)Nc1ccc(C(=O)N[C@@H](CC#N)C(=O)Nc2ccc(C(=O)Nc3ccc(C(=O)Nc4ccc(C(=O)O)c(O)c4)c(O)c3)cc2)cc1 [Compound 12, HMZS-pABA-L-Cya-pABA-HpABA-HpABA-OH]	32000 µg/mL (≈ 40900 µM)	4000 µg/mL (≈ 5110 µM)	16000 µg/mL (≈ 20400 µM)	–	–	–	–	–
COc1c(NC(=O)c2ccc(NC(=O)c3ccc(NC(=O)[C@@H](Cc4c[nH]cn4)NC(=O)c4ccc(NC(=O)/C(C)=C/c5ccc(O)cc5)cc4)cc3)c(OC)c2O)ccc(C(=O)O)c1O [Compound 15, D-His-albicidin]	8000 µg/mL (≈ 9050 µM)	125 µg/mL (≈ 141 µM)	125 µg/mL (≈ 141 µM)	1000 µg/mL (≈ 1130 µM)	–	–	–	–
COc1ccc(C#Cc2ccc(C(=O)N[C@@H](Cc3c[nH]nn3)C(=O)Nc3ccc(C(=O)Nc4ccc(C(=O)Nc5ccc(C(=O)O)c(O)c5OC)c(O)c4OC)cc3)cc2)cc1 [Compound 26]	–	–	–	–	500 µg/mL (≈ 595 µM)	≤ 16 µg/mL	63 µg/mL (≈ 75 µM)	250 µg/mL (≈ 298 µM)
COc1c(NC(=O)c2ccc(NC(=O)c3ccc(NC(=O)[C@H](Cc4ccccn4)NC(=O)c4ccc(NC(=O)/C(C)=C/c5ccc(O)cc5)cc4)cc3)c(OC)c2O)ccc(C(=O)O)c1O [Compound 7, L-2-Py-Albicidin]	2000 µg/mL (≈ 2230 µM)	125 µg/mL (≈ 140 µM)	250 µg/mL (≈ 279 µM)	250 µg/mL (≈ 279 µM)	–	–	–	–
COc1c(NC(=O)c2ccc(NC(=O)c3ccc(NC(=O)[C@H](Cc4c[nH]nn4)NC(=O)c4ccc(NC(=O)/C(C)=C/c5ccc(O)cc5)cc4)c(OC)c3O)c(OC)c2O)ccc(C(=O)O)c1O [Compound 23]	≥ 8000 µg/mL	2000 µg/mL (≈ 2150 µM)	≥ 8000 µg/mL	≥ 8000 µg/mL	–	–	–	–
CCOc1c(NC(=O)c2ccc(NC(=O)c3ccc(NC(=O)[C@H](Cc4c[nH]nn4)NC(=O)c4ccc(NC(=O)/C(C)=C/c5ccc(O)cc5)cc4)cc3)c(OCC)c2O)ccc(C(=O)O)c1O [Compound 20]	500 µg/mL (≈ 548 µM)	16 µg/mL (≈ 17.5 µM)	16 µg/mL (≈ 17.5 µM)	31 µg/mL (≈ 34 µM)	–	–	–	–
COc1c(NC(=O)c2ccc(NC(=O)c3ccc(NC(=O)[C@H](CC#N)NC(=O)c4ccc(NC(=O)/C(C)=C/c5ccc(O)cc5)cc4)cc3)c(OC)c2O)ccc(C(=O)O)c1O [Albicidin]	1000 µg/mL (≈ 1190 µM)	63 µg/mL (≈ 74.7 µM)	63 µg/mL (≈ 74.7 µM)	250 µg/mL (≈ 297 µM)	–	–	–	–
COc1c(NC(=O)c2ccc(NC(=O)c3ccc(N(C)C(=O)[C@H](Cc4c[nH]nn4)NC(=O)c4ccc(NC(=O)/C(C)=C/c5ccc(O)cc5)cc4)cc3)c(OC)c2O)ccc(C(=O)O)c1O [Compound 22]	≥ 8000 µg/mL	2000 µg/mL (≈ 2220 µM)	≥ 8000 µg/mL	≥ 8000 µg/mL	–	–	–	–
COc1c(NC(=O)c2ccc(NC(=O)c3ccc(NC(=O)[C@H](Cc4cnn[nH]4)NC(=O)c4ccc(NC(=O)/C(C)=C/c5ccc(O)cc5)cc4)cc3O)c(OC)c2O)ccc(C(=O)O)c1O [Compound 25]	4000 µg/mL (≈ 4440 µM)	16 µg/mL (≈ 17.8 µM)	31 µg/mL (≈ 34.4 µM)	250 µg/mL (≈ 278 µM)	–	–	–	–
COc1c(NC(=O)c2ccc(NC(=O)c3ccc(NC(=O)C4(NC(=O)c5ccc(NC(=O)/C(C)=C/c6ccc(O)cc6)cc5)CCN(C)CC4)cc3)c(OC)c2O)ccc(C(=O)O)c1O [Compound 6, N-Methylpiperidino-Albicidin]	≥ 8000 µg/mL	2000 µg/mL (≈ 2260 µM)	2000 µg/mL (≈ 2260 µM)	≥ 8000 µg/mL	–	–	–	–
COc1c(NC(=O)c2ccc(NC(=O)c3ccc(NC(=O)[C@H](CN(C)C)NC(=O)c4ccc(NC(=O)c5ccc(O)cc5)cc4)cc3)c(OC)c2O)ccc(C(=O)O)c1O [Compound 19]	≥ 8000 µg/mL	500 µg/mL (≈ 609 µM)	2000 µg/mL (≈ 2440 µM)	4000 µg/mL (≈ 4870 µM)	–	–	–	–
COc1c(NC(=O)c2ccc(NC(=O)c3ccc(NC(=O)[C@H](Cc4cnn[nH]4)NC(=O)c4ccc(NC(=O)/C(C)=C/c5ccc(O)cc5)cc4)c(O)c3)c(OC)c2O)ccc(C(=O)O)c1O [Compound 24]	8000 µg/mL (≈ 8880 µM)	63 µg/mL (≈ 69.9 µM)	125 µg/mL (≈ 139 µM)	1000 µg/mL (≈ 1110 µM)	–	–	–	–
C#CCOc1ccc(C(=O)Nc2ccc(C(=O)NC(CC3(C)N=N3)C(=O)Nc3ccc(C(=O)Nc4ccc(C(=O)Nc5ccc(C(=O)O)c(O)c5OC)c(O)c4OC)cc3)cc2)cc1 (centres unmarked) [Compound 11]	125 µg/mL (≈ 144 µM)	16 µg/mL (≈ 18.4 µM)	63 µg/mL (≈ 72.4 µM)	125 µg/mL (≈ 144 µM)	–	–	–	–
COc1c(NC(=O)c2ccc(NC(=O)c3ccc(NC(=O)[C@H](Cc4ccncc4)NC(=O)c4ccc(NC(=O)/C(C)=C/c5ccc(O)cc5)cc4)cc3)c(OC)c2O)ccc(C(=O)O)c1O [Compound 9]	8000 µg/mL (≈ 8940 µM)	125 µg/mL (≈ 140 µM)	500 µg/mL (≈ 559 µM)	2000 µg/mL (≈ 2230 µM)	–	–	–	–
COc1c(NC(=O)c2ccc(NC(=O)c3ccc(NC(=O)[C@H](CC#N)NC(=O)c4ccc(NC(=O)/C(C)=C/c5ccc(O)cc5)cc4)cc3O)c(OC)c2O)ccc(C(=O)O)c1O [Compound 14]	–	16 µg/mL (≈ 18.6 µM)	31 µg/mL (≈ 36.1 µM)	250 µg/mL (≈ 291 µM)	–	–	–	–
C#CCOc1ccc(/C=C(\C)C(=O)Nc2ccc(C(=O)NC(CC3(C)N=N3)C(=O)Nc3ccc(C(=O)Nc4ccc(C(=O)Nc5ccc(C(=O)O)c(O)c5OC)c(O)c4OC)cc3)cc2)cc1 (centres unmarked) [Compound 10]	250 µg/mL (≈ 275 µM)	≤ 16 µg/mL	63 µg/mL (≈ 69.2 µM)	125 µg/mL (≈ 137 µM)	–	–	–	–
COc1c(NC(=O)c2ccc(NC(=O)c3ccc(NC(=O)C(Cc4cn(C)cn4)NC(=O)c4ccc(NC(=O)/C(C)=C/c5ccc(O)cc5)cc4)cc3)c(OC)c2O)ccc(C(=O)O)c1O [Compound 5, L-Methyl-His-Albicidin]	4000 µg/mL (≈ 4450 µM)	63 µg/mL (≈ 70.2 µM)	125 µg/mL (≈ 139 µM)	500 µg/mL (≈ 557 µM)	–	–	–	–
COc1c(NC(=O)c2ccc(NC(=O)c3ccc(NC(=O)[C@H](Cc4cccnc4)NC(=O)c4ccc(NC(=O)/C(C)=C/c5ccc(O)cc5)cc4)cc3)c(OC)c2O)ccc(C(=O)O)c1O [Compound 8]	1000 µg/mL (≈ 1120 µM)	–	250 µg/mL (≈ 279 µM)	500 µg/mL (≈ 559 µM)	–	–	–	–
